This note sets out measurements from patent publication US9771345B2, “Coferons and methods of making and using them” (Cornell University, priority 2009, dated 2017).

Each structure is given as a SMILES string.

A short description of data set [1]: Alizarin Red S displacement: equilibrium between boronic acid and diols or other ligands. Type of data set: physicochemical. Conditions: 0.10 M phosphate buffer, pH 7.4; no Keq range given. The text has this: To assess the potential of boronic acid diol pairs as potential summa linkers within Coferons, the Alizarin Red S method was used essentially as described (Springsteen, G. and Wang, B, Tetrahedron 58: 5291-5300 (2002), which is hereby incorporated by reference in its entirety). Alizarin Red S gives a red color when free in solution, and shifts to yellow when complexed to boronic acids.
To determine equilibria between boronic acid species and diols or other ligands, a solution containing 2.0×10^−3 M boronic acid, 1.0×10^−4 M of ARS in 0.10 M phosphate buffer, pH 7.4 was prepared. Diol or other ligands from 3×10^−2 M to 1.0×10^−4 M were serially diluted into the above boronic acid-ARS mix, and absorbance spectra were determined from 350 to 750 nm. (stock solutions were made to 100 mM in DMSO). The higher concentrations of diol would displace the boronic acid from complexation with ARS, liberating free ARS and turning the solution pink. The percent complexed and percent free ARS was determined by comparing absorbance level to fully complexed and free ARS at 440 and 550 nm. The approximate equilibrium constant Keq2 for a given boronic acid-diol complexation was estimated using the formula: Keq=[ARS−PBA]/[ARS]×[PBA] [PBA]=[ARS−PBA]/[ARS]×Keq [Sorb−PBA]=0.002−[PBA]−[ARS−PBA] [Sorb]=Total Sorb−[Sorb−PBA] Keq2=[Sorb PBA]/[Sorb]×[PBA] (where ARS=Alizarin Red S; Sorb=sorbitol; and PBA=Phenylboronic acid as an example).

Data set [2] in a line: LC-MS/MS determination of dimerization of summa linkers. Type of data set: physicochemical. The following applies: for Dimer 4 level: after 115 h. The text has this:
For summa linkers and coferons that form dimers that are slow to hydrolyze/equilibrate under the chromatographic conditions, evidence for dimerization or oligomerization may be generated using LC-MS/MS methods in which the monomeric and dimeric species are separated by reversed-phase liquid chromatography and identified using tandem mass spectrometric methods, typically utilizing MRM transitions to maximize sensitivity. Often this approach is capable of separating and quantifying isomeric and diastereomeric dimeric states of the summa linker and coferon assemblies.
Typically, a solution of the following homodimeric summa linker was incubated under various conditions of pH, concentration, organic cosolvent, or protein additives, etc. and aliquots were chromatographed on a Primesep 200 (150×4.6 mm, 5μ) RP-HPLC column using a flow rate of 1.0 mL/min and a linear gradient of 0.1% aqueous TFA/acetonitrile over 25-30 minutes. Preparations containing a known amount of dimeric species (as determined by NMR for example) can be employed as a standard to allow for accurate quantitation of monomeric and dimeric states. For example, using such conditions, 4 isomeric dimers of the following racemic amino-cyclobutanone summa linker moiety (RT 7.29 min; example 47; >99.7% monomeric) were quantified under various conditions. When incubated at 0.125 mg/mL at 20° C. at pH 2.0 in 0.1% TFA, dimers-1, -2 & -3 eluting at 15, 15.5 and 16 min, respectively, increased from 0.06%, 0.06% and 0.11% at time zero to 2.35, 2.3%, and 5.2% after 169 h; dimer-4 was not observed under these conditions. […] Complete equilibrium between monomer and dimer-4 was not achieved within this timeframe, as dimer-4 was still increasing at 169 h.

The mark [3] stands for this setting: 0.125 mg/mL, 20° C., pH 2.0 in 0.1% TFA, after 169 h.
Where [4] appears, read: 0.125 mg/mL, 20° C., pH 2.0 in 0.1% TFA, time zero.

For `O=C(O)C(O)c1cccc(F)c1F` (stereo not shown) [2,3-difluoromandelic acid, 2,3-Difluoromandelic acid], in data set [1], the “affinity of diol or other ligand for boronic acids in aqueous solution (in words)” value (from here on “affinity of diol or other ligand”) is “lower affinities for boronic acids”.

On to `NC(CO)(CO)CO` [tris base (TRIZMA Base), Tris Base (TRIZMA Base)], for which the “affinity of diol or other ligand” value in data set [1] is “lower affinities for boronic acids”.

Take `CNc1ccccc1O` [2-(methylamino)phenol, 2-(Methylamino)phenol]: in data set [1], the “affinity of diol or other ligand” value is “lower affinities for boronic acids”.

In the case of `CC(CO)(CO)CO` [1,1,1-tris(hydroxymethyl)ethane, 1,1,1-Tris(hydroxymethyl)ethane], the “affinity of diol or other ligand” value in data set [1] was “lower affinities for boronic acids”.

Turning to `CC(N)(CO)CO` [2-amino-2-methyl-1,3-propanediol, 2-Amino-2-methyl-1,3-propanediol], the “affinity of diol or other ligand” value in data set [1] is listed as “lower affinities for boronic acids”.

Take `O[C@@H]1CCCC[C@@H]1O` [cis-1,2-cyclohexanediol, cis-1,2-Cyclohexanediol]: the “affinity of diol or other ligand” value in data set [1] is reported as “lower affinities for boronic acids”.

Consider `O=C(O)C(O)c1c(F)cccc1F` (stereo not shown) [2,6-difluoromandelic acid, 2,6-Difluoromandelic acid], for which the “affinity of diol or other ligand” value in data set [1] is “lower affinities for boronic acids”.

As to `O=C(CO)CO` [1,3-dihydroxyacetone], in data set [1], the “affinity of diol or other ligand” value is “lower affinities for boronic acids”.

On to `O=C(NCCO)c1ccccc1O` [N-(2-hydroxyethyl)salicylamide, N-(2-Hydroxyethyl)salicylamide], for which the “affinity of diol or other ligand” value in data set [1] is “lower affinities for boronic acids”.

Turning to `CCOC(=O)c1cnc(NC2CCC2=O)nc1C` (stereo not shown) [Example 47, Ethyl 4-methyl-2-((2-oxocyclobutyl)amino)pyrimidine-5-carboxylate], in data set [2] (0.125 mg/mL, 20° C., pH 2.0 in 0.1% TFA), the dimer-4 formation result was “not observed”. Besides, the dimer-1 level in data set [2] (setting [3]) stood at 2.35%; in data set [2] (setting [4]), 0.06%. Besides, the dimer-2 level turned out to be 2.3% in data set [2] (setting [3]) and 0.06% in data set [2] (setting [4]). In addition, the results for the dimer-3 level in data set [2] (setting [3]) and in data set [2] (setting [4]) were 5.2% and 0.11%, respectively. The “fraction of dimer-4 at equilibrium” value in data set [2] (0.5 mg/mL, pH7.4 HEPES buffer with BSA) is on record as greater than 14%. Moreover, the “Dimer 4 level” value in data set [2] (0.5 mg/mL, pH7.4 HEPES buffer, in the absence of BSA) was determined as 4.73%; in data set [2] (0.5 mg/mL, pH7.4 HEPES buffer, in the presence of BSA) it was 13.75%. Further, the dimer-4 level in data set [2] (pH7.4 HEPES buffer, 169 h) was 1.82%; in data set [2] (pH7.4 HEPES buffer, start) it was less than 0.015%. In data set [2] (pH7.4 HEPES buffer, over 169 h), the “levels of dimers-1, -2, and -3” value is “below 0.01%”.

For the compound `O=C(O)C(=O)Cc1ccccc1` [phenylpyruvic acid, Phenylpyruvic acid], in data set [1], the “affinity of diol or other ligand” value is “lower affinities for boronic acids”.

Take `CC(O)(C(=O)O)C(F)(F)F` (stereo not shown) [3,3,3-Trifluoro-2-hydroxy-2-methylpropionic Acid]: the “affinity of diol or other ligand” value in data set [1] is “lower affinities for boronic acids”.

Take `O=C(O)C(O)c1ccccc1F` (stereo not shown) [2-fluoromandelic acid, 2-Fluoromandelic acid]: the “affinity of diol or other ligand” value in data set [1] was “lower affinities for boronic acids”.

As to `COc1cccc(CO)c1O` [2-hydroxy-3-methoxybenzyl alcohol, 2-Hydroxy-3-methoxybenzyl alcohol], the “affinity of diol or other ligand” value in data set [1] is “lower affinities for boronic acids”.

For `CC(=O)Nc1ccccc1O` [2-acetamidophenol, 2-Acetamidophenol], the “affinity of diol or other ligand” value in data set [1] is “lower affinities for boronic acids”.

As to `O=C(O)c1c(O)cccc1O` [2,6-dihydroxybenzoic acid, 2,6-Dihydroxybenzoic acid], the “affinity of diol or other ligand” value in data set [1] is recorded as “lower affinities for boronic acids”.

For `O[C@@H]1CNC[C@@H]1O` [(3S,4R)-pyrrolidine-3,4-diol], the “affinity of diol or other ligand” value in data set [1] was “lower affinities for boronic acids”.

Take `CC(O)C(=O)O` (stereo not shown) [lactic acid (solution), Lactic acid]: the “affinity of diol or other ligand” value in data set [1] is “lower affinities for boronic acids”.

Turning to `CC(CO)(CO)C(=O)O` [2,2-bis(hydroxymethyl)propionic acid, 2,2-Bis(hydroxymethyl)propionic acid], the “affinity of diol or other ligand” value in data set [1] is “lower affinities for boronic acids”.

For `O=C(O)C(O)c1ccccc1` (racemic) [DL-mandelic acid, DL-Mandelic acid], the “affinity of diol or other ligand” value in data set [1] was “lower affinities for boronic acids”.

As to `O[C@@H]1CCCC[C@H]1O` (relative stereo) [trans-1,2-cyclohexanediol, trans-1,2-Cyclohexanediol], the “affinity of diol or other ligand” value in data set [1] is on record as “lower affinities for boronic acids”.

Turning to `O=C(O)C(O)c1ccc(C(F)(F)F)cc1` (stereo not shown) [4-(trifluoromethyl)mandelic acid, 4-(Trifluoromethyl)mandelic acid], the “affinity of diol or other ligand” value in data set [1] is on record as “lower affinities for boronic acids”.

On to `O=C(O)C(O)c1cc(F)cc(F)c1` (stereo not shown) [3,5-difluoromandelic acid, 3,5-Difluoromandelic acid], for which the “affinity of diol or other ligand” value in data set [1] is listed as “lower affinities for boronic acids”.

`O=C([O-])C(=O)CO.[Li+]` [hydroxypyruvic acid, lithium salt, Hydroxypyruvic acid, Lithium salt]: the “affinity of diol or other ligand” value in data set [1] is given as “lower affinities for boronic acids”.

With `O=C(O)C(O)c1ccc(F)cc1F` (stereo not shown) [2,4-difluoromandelic acid, 2,4-Difluoromandelic acid], in data set [1], the “affinity of diol or other ligand” value is recorded as “lower affinities for boronic acids”.

As to `O=C(O)C(O)c1cc(F)ccc1F` (stereo not shown) [2,5-difluoromandelic acid, 2,5-Difluoromandelic acid], in data set [1], the “affinity of diol or other ligand” value is on record as “lower affinities for boronic acids”.

Turning to `O=C[C@H](O)[C@@H](O)[C@H](O)[C@H](O)CO` [D-(+)-glucose, D-(+)-Glucose], the “affinity of diol or other ligand” value in data set [1] was “lower affinities for boronic acids”.

`OCC(CO)(CO)CO` [pentaerythritol, Pentaerythritol]: in data set [1], the “affinity of diol or other ligand” value is on record as “lower affinities for boronic acids”.

For `O=C(O)C1(O)CNC1` [3-hydroxyazetidine-3-carboxylic acid], the “affinity of diol or other ligand” value in data set [1] is on record as “lower affinities for boronic acids”.

For `O=C(O)c1ccccc1O` [salicylic acid, Salicylic acid], in data set [1], the “affinity of diol or other ligand” value was “lower affinities for boronic acids”.

With `CC(C)(O)C(C)(C)O` [pinacol, Pinacol], in data set [1], the “affinity of diol or other ligand” value is recorded as “lower affinities for boronic acids”.

For the compound `O=C(O)C(O)(C(F)(F)F)C(F)(F)F` [3,3,3-Trifluoro-2-hydroxy-2-(trifluoromethyl)propionic acid], the “affinity of diol or other ligand” value in data set [1] is reported as “lower affinities for boronic acids”.

`CNCC(O)CO` (stereo not shown) [3-methylamino-1,2-propanediol, 3-Methylamino-1,2-propanediol]: the “affinity of diol or other ligand” value in data set [1] is listed as “lower affinities for boronic acids”.

Take `Cc1ccc(O)c(N)c1` [2-amino-4-methylphenol, 2-Amino-4-methylphenol]: the “affinity of diol or other ligand” value in data set [1] is given as “lower affinities for boronic acids”.
